These results are taken from article PMC4663167 (Insect biochemistry and molecular biology, 2015).

The experiment deals with PhumOR2 (odorant receptor) (Pediculus humanus, UniProt A0ACM8QMA3). In kind it is cell-based.
With `CC(O)c1ccccc1` (stereo not drawn) [1-phenylethanol], a half-maximal effect (EC50) was put at 1300 µM.
The result for `Cc1cccc(O)c1C` [2,3-dimethylphenol] reads 103 µM; that for `CC1CCC(O)CC1` (stereo not drawn) [4-methylcyclohexanol], 120 µM.
